Measured values published in patent US11807650B2, “NMDA receptor modulators and uses thereof” (Novartis AG, priority 2016, dated 2023).

Target: T1, human GRIN1 (transcript variant NR1-3) and GRIN2D expressed in Xenopus oocytes (Homo sapiens, UniProt O15399)
T1 construct: GenScript (GRIN2D synthesis) SC115601; host or cells: Xenopus oocytes injected with cRNA (1 GluN1 : 2 GluN2)
Test: NR2D oocyte potentiation assay (two-electrode voltage clamp)
Format: cell-based
Conditions: 10 uM test compound; glutamate and glycine 10 μM each; holding potential −40 mV
Description: NR2D Oocyte Potentiation Assay. Xenopus oocytes (Xenopus 1, Dexter, Mich.) were initially separated from the lobes of an ovary using surgical forceps; they were then defolliculated by constant agitation at room temperature in OR-2 buffer (82.5 mM NaCl; 2.5 mM KCl; 1 mM MgCl2; 5 mM HEPES; pH 7.4) containing 2 mg/ml collagenase Type 1 (Fisher Scientific, USA) for 1.5-2 hours. The cells were then gently aspirated with a Pasteur pipette to remove the follicular tissue; this was followed by washing three times with OR-2 to remove all traces of collagenase. The oocytes were then washed in ND-96 (96 mM NaCl, 2 mM KCl, 1.8 mM CaCl2, 1 mM MgCl2, 5 mM HEPES, 50 ng/L gentamycin, 100 units/ml penicillin and 100 μg/ml streptomycin; pH 7.6) three times and this was followed by incubation in ND-96 at room temperature with mild agitation for 15 minutes; subsequently they were stored for at least 2 hours at 16° C. before sorting and selection for injection. Oocytes selected for injection were incubated overnight in ND-96 at 16° C.
The human GRIN1 (transcript variant NR1-3 (Origene, SKU #: SC115601, Rockville, Md.) and GRIN2D (NCBI locus NM_000836, sequence optimized and synthesized by GenScript) were linearized and transcribed using the mMessage mMachine kit (Life Technologies) and promoters SP6 (for GluN1) and T7 (for GluN2D). cRNAs were mixed together at a ratio of 1 GluN1:2 GluN2. Each oocyte was injected with 50 nL of cRNA and stored in ND96 (96 mM NaCl, 2 mM KCl, 1.8 mM CaCl2, 1 mM MgCl2, 5 mM HEPES, 50 ng/L gentamycin, 100 units/ml penicillin and 100 μg/ml streptomycin; pH 7.6) at 16° C. for 72 h prior to recording.
Currents were recorded using a two-electrode voltage-clamp amplifier (Oocyte Clamp OC-725C; Warner Instrument Corp, Hamden, Conn.), and digitized using Digidata 1550A and pClamp (v. 10) software (Molecular Devices, Sunnyvale, Calif.). Electrodes were filled with 3 M KCl and had resistances that ranged from 0.2-1 MO. All measurements were made at a holding potential of −40 mV. Cells were continuously perfused with oocyte recording solution containing 90 mM NaCl, 1 mM KCl, 0.5 mM BaCl2, and 10 mM HEPES (Ph 7.4). Glutamate and Glycine (co-agonists) were applied at respective concentrations of 10 μM each. Co-agonists were applied until a plateau was reached, and test compounds were then added in the continued presence of co-agonists until a new plateau was reached. After the addition of the last test compound concentration, the oocyte was washed with oocyte recording buffer. Fraction of current remaining was calculated as [(current in presence of test compound−background current)/(co-agonist current−background current)] and IC50 values were computed using Prism 6.0 (Graphpad).

T1 sequence (O15399 28-1336, other chains not shown): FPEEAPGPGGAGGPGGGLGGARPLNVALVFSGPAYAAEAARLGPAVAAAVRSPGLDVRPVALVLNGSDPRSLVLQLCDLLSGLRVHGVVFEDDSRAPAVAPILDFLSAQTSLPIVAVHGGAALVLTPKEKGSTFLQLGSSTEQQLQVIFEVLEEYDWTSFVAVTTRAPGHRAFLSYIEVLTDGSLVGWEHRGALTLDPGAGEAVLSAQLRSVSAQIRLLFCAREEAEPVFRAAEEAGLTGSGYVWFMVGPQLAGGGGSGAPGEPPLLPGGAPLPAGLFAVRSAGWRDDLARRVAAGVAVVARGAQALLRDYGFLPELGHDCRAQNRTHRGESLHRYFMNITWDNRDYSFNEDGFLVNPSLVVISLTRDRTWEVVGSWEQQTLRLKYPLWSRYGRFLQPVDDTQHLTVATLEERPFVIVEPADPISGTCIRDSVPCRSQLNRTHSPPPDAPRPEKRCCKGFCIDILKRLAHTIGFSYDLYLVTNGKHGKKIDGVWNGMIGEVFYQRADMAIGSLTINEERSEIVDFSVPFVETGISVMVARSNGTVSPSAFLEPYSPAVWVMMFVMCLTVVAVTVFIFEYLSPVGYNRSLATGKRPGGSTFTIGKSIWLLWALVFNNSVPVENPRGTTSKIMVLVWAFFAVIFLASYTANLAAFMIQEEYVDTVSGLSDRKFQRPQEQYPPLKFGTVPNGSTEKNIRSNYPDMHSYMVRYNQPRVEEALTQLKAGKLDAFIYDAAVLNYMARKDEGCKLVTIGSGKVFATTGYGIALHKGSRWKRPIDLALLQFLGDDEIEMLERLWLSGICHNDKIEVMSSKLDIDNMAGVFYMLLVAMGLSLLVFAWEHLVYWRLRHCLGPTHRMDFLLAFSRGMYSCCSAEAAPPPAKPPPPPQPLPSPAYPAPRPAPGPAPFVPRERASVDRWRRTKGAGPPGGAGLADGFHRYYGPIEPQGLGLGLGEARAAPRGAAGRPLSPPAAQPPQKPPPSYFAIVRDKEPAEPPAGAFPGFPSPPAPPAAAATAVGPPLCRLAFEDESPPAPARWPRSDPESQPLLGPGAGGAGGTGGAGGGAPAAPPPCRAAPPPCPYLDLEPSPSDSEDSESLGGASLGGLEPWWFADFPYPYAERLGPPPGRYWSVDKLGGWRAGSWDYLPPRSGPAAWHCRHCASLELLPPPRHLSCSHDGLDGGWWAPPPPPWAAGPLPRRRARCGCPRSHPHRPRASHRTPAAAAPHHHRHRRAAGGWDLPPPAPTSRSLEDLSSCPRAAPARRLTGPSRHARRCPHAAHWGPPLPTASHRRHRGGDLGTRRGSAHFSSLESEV

Row | activation at 10 µM | NR2D Oocyte % Potentiation @ 10 uM | SMILES
1 | 100 to 500% |  | CC(C)(C)c1ccc(-c2nc3n(c(=O)c2Br)CCCS3)cn1 [Example 30, 7-bromo-8-(6-(tert-butyl)pyridin-3-yl)-3,4-dihydro-2H,6H-pyrimido[2,1-b][1,3]thiazin-6-one]
2 | 10 to 100% |  | Cc1c(-c2ccc(C(C)(C)C)nc2)nc2n(c1=O)CCCS2 [Example 31, 8-(6-(tert-butyl)pyridin-3-yl)-7-methyl-3,4-dihydro-2H,6H-pyrimido[2,1-b][1,3]thiazin-6-one]
3 | 10 to 100% |  | C=Cc1c(-c2ccc(C(C)(C)C)cc2)nc2n(c1=O)CCCS2 [Example 32, 8-(4-(tert-butyl)phenyl)-7-vinyl-3,4-dihydro-2H,6H-pyrimido[2,1-b][1,3]thiazin-6-one]
4 | 10 to 100% |  | C=Cc1c(-c2ccc(C(C)(C)C)nc2)nc2n(c1=O)CCCS2 [Example 33, 8-(6-tert-butylpyridin-3-yl)-7-ethenyl-2H, 3H,4H,6H-pyrimido [2,1-b][1,3] thiazin-6-one]
5 | 10 to 100% |  | CC1CCc2nc(-c3ccc(C(C)(C)C)nc3)c(C#N)c(=O)n2C1 (stereo not shown) [Example 34, 2-(6-(tert-butyl)pyridin-3-yl)-7-methyl-4-oxo-6,7,8,9-tetrahydro-4H-pyrido[1,2-a]pyrimidine-3-carbonitrile]
6 |  | Inhibitor | CC1(C)CN(c2ccc(-c3nc4n(c(=O)c3C#N)CCCS4)cn2)C1 [Example 54, 8-(6-(3,3-dimethylazetidin-1-yl)pyridin-3-yl)-6-oxo-3,4-dihydro-2H,6H-pyrimido[2,1-b][1,3]thiazine-7-carbonitrile]
7 | 10 to 100% |  | N#Cc1c(-c2ccc(Br)nc2)nc2n(c1=O)CCCS2 [Example 57, 8-(6-bromopyridin-3-yl)-6-oxo-3,4-dihydro-2H,6H-pyrimido[2,1-b][1,3]thiazine-7-carbonitrile]
8 | 500 to 1000% |  | COc1cc(-c2nc3n(c(=O)c2C#N)CCCS3)cnc1C(C)(C)C [Example 60, 8-(6-(tert-butyl)-5-methoxypyridin-3-yl)-6-oxo-3,4-dihydro-2H,6H-pyrimido[2,1-b][1,3]thiazine-7-carbonitrile]
9 | > 1000% |  | CSc1cc(-c2nc3n(c(=O)c2C#N)CCCS3)cnc1C(C)(C)C [Example 62, 8-(6-(tert-butyl)-5-(methylthio)pyridin-3-yl)-6-oxo-3,4-dihydro-2H,6H-pyrimido[2,1-b][1,3]thiazine-7-carbonitrile]
10 | 10 to 100% |  | CN(C)c1ccc(-c2nc3n(c(=O)c2C#N)CCCS3)cn1 [Example 66, 8-(6-(dimethylamino)pyridin-3-yl)-6-oxo-3,4-dihydro-2H,6H-pyrimido[2,1-b][1,3]thiazine-7-carbonitrile]
11 | > 1000% |  | CC(C)(C)c1ccc(-c2cc3n(c(=O)c2C#N)CCCS3)cn1 [Example 70, 8-(6-(tert-butyl)pyridin-3-yl)-6-oxo-3,4-dihydro-2H,6H-pyrido[2,1-b][1,3]thiazine-7-carbonitrile]

More lines, now with the values behind:

Row | SMILES | activation at 10 µM | NR2D Oocyte % Potentiation @ 10 uM
12 | Cc1csc2nc(-c3ccc(C(C)(C)C)nc3)c(C#N)c(=O)n12 [Example 35, 7-(6-(tert-butyl)pyridin-3-yl)-3-methyl-5-oxo-5H-thiazolo[3,2-a]pyrimidine-6-carbonitrile] | 100 to 500% | 
13 | CC(C)(C)c1ncc(-c2nc3n(c(=N)c2C#N)CCCS3)cc1F [Example 40, 8-(6-(tert-butyl)-5-fluoropyridin-3-yl)-6-imino-3,4-dihydro-2H,6H-pyrimido[2,1-b][1,3]thiazine-7-carbonitrile] | > 1000% | 
14 | CC1CSc2nc(-c3cnc(C(C)(C)C)c(F)c3)c(C#N)c(=N)n2C1 (stereo not shown) [Example 41, 8-(6-(tert-butyl)-5-fluoropyridin-3-yl)-6-imino-3-methyl-3,4-dihydro-2H,6H-pyrimido[2,1-b][1,3]thiazine-7-carbonitrile] | > 1000% | 
15 | CC1CSc2nc(-c3ccc(C4(C(F)(F)F)CC4)cc3)c(C#N)c(=O)n2C1 (stereo not shown) [Example 46, 3-methyl-6-oxo-8-(4-(1-(trifluoromethyl)cyclopropyl)phenyl)-3,4-dihydro-2H,6H-pyrimido[2,1-b][1,3]thiazine-7-carbonitrile] | 100 to 500% | 
16 | N#Cc1c(-c2ccc(C3(C(F)(F)F)CC3)cc2)nc2n(c1=O)CCCS2 [Example 47, 6-oxo-8-(4-(1-(trifluoromethyl)cyclopropyl)phenyl)-3,4-dihydro-2H,6H-pyrimido[2,1-b][1,3]thiazine-7-carbonitrile] | 500 to 1000% | 
17 | CC1CSc2nc(-c3ccc(N4CC(C)(F)C4)nc3)c(C#N)c(=O)n2C1 (stereo not shown) [Example 51, 8-(6-(3-fluoro-3-methylazetidin-1-yl)pyridin-3-yl)-3-methyl-6-oxo-3,4-dihydro-2H,6H-pyrimido[2,1-b][1,3]thiazine-7-carbonitrile] |  | Inhibitor
18 | CC1CSc2nc(-c3ccc(N4CC(C)(C)C4)nc3)c(C#N)c(=O)n2C1 (stereo not shown) [Example 52, 8-(6-(3,3-dimethylazetidin-1-yl)pyridin-3-yl)-3-methyl-6-oxo-3,4-dihydro-2H,6H-pyrimido[2,1-b][1,3]thiazine-7-carbonitrile] |  | Inhibitor
19 | CC1(F)CN(c2ccc(-c3nc4n(c(=O)c3C#N)CCCS4)cn2)C1 [Example 53, 8-(6-(3-fluoro-3-methylazetidin-1-yl)pyridin-3-yl)-6-oxo-3,4-dihydro-2H,6H-pyrimido[2,1-b][1,3]thiazine-7-carbonitrile] |  | Inhibitor
20 | N#Cc1c(-c2ccc(N3CC(F)(F)C3)nc2)nc2n(c1=O)CCCS2 [Example 55, 8-(6-(3,3-difluoroazetidin-1-yl)pyridin-3-yl)-6-oxo-3,4-dihydro-2H,6H-pyrimido[2,1-b][1,3]thiazine-7-carbonitrile] |  | Inhibitor
21 | CC1CSc2nc(-c3ccc(N4CC(F)(F)C4)nc3)c(C#N)c(=O)n2C1 (stereo not shown) [Example 56, 8-(6-(3,3-difluoroazetidin-1-yl)pyridin-3-yl)-3-methyl-6-oxo-3,4-dihydro-2H,6H-pyrimido[2,1-b][1,3]thiazine-7-carbonitrile] |  | Inhibitor
22 | CC1CSc2nc(-c3cnc(C(C)(C)C)c(Br)c3)c(C#N)c(=O)n2C1 (stereo not shown) [Example 58, 8-(5-bromo-6-(tert-butyl)pyridin-3-yl)-3-methyl-6-oxo-3,4-dihydro-2H,6H-pyrimido[2,1-b][1,3]thiazine-7-carbonitrile] | > 1000% | 
23 | COc1cc(-c2nc3n(c(=O)c2C#N)CC(C)CS3)cnc1C(C)(C)C (stereo not shown) [Example 59, 8-(6-(tert-butyl)-5-methoxypyridin-3-yl)-3-methyl-6-oxo-3,4-dihydro-2H,6H-pyrimido[2,1-b][1,3]thiazine-7-carbonitrile] | > 1000% | 
24 | CSc1cc(-c2nc3n(c(=O)c2C#N)CC(C)CS3)cnc1C(C)(C)C (stereo not shown) [Example 61, 8-(6-(tert-butyl)-5-(methylthio)pyridin-3-yl)-3-methyl-6-oxo-3,4-dihydro-2H,6H-pyrimido[2,1-b][1,3]thiazine-7-carbonitrile] | > 1000% | 
25 | CC(C)(C)c1ccc(-c2cc3n(c(=O)c2C#N)CCCS3)cc1 [Example 68, 8-(4-(tert-butyl)phenyl)-6-oxo-3,4-dihydro-2H,6H-pyrido[2,1-b][1,3]thiazine-7-carbonitrile] | > 1000% | 
26 | CC1CSc2cc(-c3ccc(C(C)(C)C)nc3)c(C#N)c(=O)n2C1 (stereo not shown) [Example 69, 8-(6-(tert-butyl)pyridin-3-yl)-3-methyl-6-oxo-3,4-dihydro-2H,6H-pyrido[2,1-b][1,3]thiazine-7-carbonitrile] | > 1000% | 
27 | CC1CSc2cc(-c3cnc(C(C)(C)C)nc3)c(C#N)c(=O)n2C1 (stereo not shown) [Example 71, 8-(2-(tert-butyl)pyrimidin-5-yl)-3-methyl-6-oxo-3,4-dihydro-2H,6H-pyrido[2,1-b][1,3]thiazine-7-carbonitrile] | > 1000% | 
28 | CC1CSc2cc(-c3ccc(C4(C)CC4)nc3)c(C#N)c(=O)n2C1 (stereo not shown) [Example 72, 3-methyl-8-(6-(1-methylcyclopropyl)pyridin-3-yl)-6-oxo-3,4-dihydro-2H,6H-pyrido[2,1-b][1,3]thiazine-7-carbonitrile] | > 1000% | 
